According to patent publication US20250171437A1 (Agios Pharmaceuticals,Inc., priority 2022, published 2025):

Target: T1, human PAH with the R408W mutation (A375 R408W cells) (Homo sapiens, UniProt P00439, R408W)
T1 construct: expressed in transfected cells
T1 sequence (P00439 1-452 R408W): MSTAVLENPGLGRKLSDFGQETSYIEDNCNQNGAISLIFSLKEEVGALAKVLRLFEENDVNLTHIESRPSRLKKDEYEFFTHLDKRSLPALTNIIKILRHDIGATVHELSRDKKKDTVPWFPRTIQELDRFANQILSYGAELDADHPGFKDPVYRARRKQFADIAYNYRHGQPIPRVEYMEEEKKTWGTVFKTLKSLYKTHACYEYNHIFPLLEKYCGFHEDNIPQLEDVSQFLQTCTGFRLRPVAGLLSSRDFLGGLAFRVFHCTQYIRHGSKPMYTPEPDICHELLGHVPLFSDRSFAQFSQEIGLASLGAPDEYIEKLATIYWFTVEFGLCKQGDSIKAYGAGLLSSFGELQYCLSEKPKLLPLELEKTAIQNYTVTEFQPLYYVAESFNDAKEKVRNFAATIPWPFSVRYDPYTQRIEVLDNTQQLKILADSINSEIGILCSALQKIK
Assay: Cell Based Phenylalanine Flux Assay
Details: 24 hrs with compound, then 20 μM sepiapterin and 800 μM 13C9,15N-Phenylalanine for 4 hours, 13C-Tyrosine by LC-MS, average where tested multiple times
Summary of the method: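 A375 cells stably expressing human PAH R408W treated 24 h at 37° C with a 10-point 2-fold dose curve in duplicate, 0.5% DMSO. Then 20 μM sepiapterin and 800 μM 13C9,15N-Phe added for 4 h; 13C-Tyr in media measured by LC-MS to give AC50.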

[1] = A375 cells expressing R408W PAH

Structure (SMILES): CN(C)CCc1cn2ncc(C(=O)N3CCc4[nH]cnc4[C@@H]3c3nc4cc(F)ccc4o3)c2cc1Cl [Example 80, (R)-(5-chloro-6-(2-(dimethylamino)ethyl)pyrazolo[1,5-a]pyridin-3-yl)(4-(5-fluorobenzo[d]oxazol-2-yl)-6,7-dihydro-1H-imidazo[4,5-c]pyridin-5(4H)-yl)methanone]
- AC50 (A375 R408W cells): 1000 to 5000 nM

Structure (SMILES): Cn1nc(Cl)nc1C(=O)N1CCc2[nH]cnc2[C@H]1c1nc2c(F)cccc2o1 [Example 277, (S)-(3-chloro-1-methyl-1H-1,2,4-triazol-5-yl)(4-(4-fluorobenzo[d]oxazol-2-yl)-6,7-dihydro-1H-imidazo[4,5-c]pyridin-5(4H)-yl)methanone]
- AC50 (A375 R408W cells): 500 to 1000 nM

Structure (SMILES): O=C(c1ccnn1-c1ccccn1)N1CCc2[nH]cnc2[C@H]1c1nc2cccc(F)c2o1 [Example 729, (S)-(4-(7-fluorobenzo[d]oxazol-2-yl)-6,7-dihydro-1H-imidazo[4,5-c]pyridin-5(4H)-yl)(1-(pyridin-2-yl)-1H-pyrazol-5-yl)methanone]
- AC50 (A375 R408W cells): 500 to 1000 nM

Structure (SMILES): Cc1nc(C(=O)N2CCc3[nH]cnc3C2c2nc3c(F)cccc3o2)n(C)n1 (stereo not drawn)
- AC50 [1]: 1000 to 5000 nM

Structure (SMILES): Cn1cc(-c2nc(C(F)(F)F)c(C(=O)N3CCc4[nH]cnc4[C@H]3c3nc4cccc(F)c4o3)o2)cn1 [Example 669, (S)-(4-(7-fluorobenzo[d]oxazol-2-yl)-6,7-dihydro-1H-imidazo[4,5-c]pyridin-5(4H)-yl)(2-(1-methyl-1H-pyrazol-4-yl)-4-(trifluoromethyl)oxazol-5-yl)methanone]
- AC50 (A375 R408W cells): ≤ 500 nM

Structure (SMILES): CN(C)CCc1cn2ncc(C(=O)N3CCc4[nH]cnc4[C@H]3c3nc4cc(F)ccc4o3)c2cc1Cl [Example 79, (S)-(5-chloro-6-(2-(dimethylamino)ethyl)pyrazolo[1,5-a]pyridin-3-yl)(4-(5-fluorobenzo[d]oxazol-2-yl)-6,7-dihydro-1H-imidazo[4,5-c]pyridin-5(4H)-yl)methanone]
- AC50 (A375 R408W cells): 500 to 1000 nM

Structure (SMILES): CC(C)(O)c1ncc(C(=O)N2CCc3[nH]cnc3[C@H]2c2nc3cccc(F)c3o2)o1 [Example 713, (S)-(4-(7-fluorobenzo[d]oxazol-2-yl)-6,7-dihydro-1H-imidazo[4,5-c]pyridin-5(4H)-yl)(2-(2-hydroxypropan-2-yl)oxazol-5-yl)methanone]
- AC50 (A375 R408W cells): 500 to 1000 nM

Structure (SMILES): O=C(c1oc(-c2ccncn2)nc1C(F)F)N1CCc2[nH]cnc2[C@@H]1c1nc2cc(F)ccc2o1 [Example 525, (R)-(4-(difluoromethyl)-2-(pyrimidin-4-yl)oxazol-5-yl)(4-(5-fluorobenzo[d]oxazol-2-yl)-6,7-dihydro-1H-imidazo[4,5-c]pyridin-5(4H)-yl)methanone]
- AC50 (A375 R408W cells): 1000 to 5000 nM

Structure (SMILES): O=C(c1nnc(-c2ccccn2)o1)N1CCc2[nH]cnc2[C@H]1c1nc2c(F)cccc2o1 [Example 333, (S)-(4-(4-fluorobenzo[d]oxazol-2-yl)-6,7-dihydro-1H-imidazo[4,5-c]pyridin-5(4H)-yl)(5-(pyridin-2-yl)-1,3,4-oxadiazol-2-yl)methanone]
- AC50 (A375 R408W cells): ≤ 500 nM

Structure (SMILES): O=C(c1cnn2cc(N3CCC4(CC3)CC4)ccc12)N1CCc2[nH]cnc2C1c1nc2cc(F)ccc2o1 (stereo not drawn)
- AC50 [1]: ≥ 5000 nM

Structure (SMILES): O=C(c1ocnc1CC(F)F)N1CCc2[nH]cnc2[C@@H]1c1nc2cccc(F)c2o1 [Example 864, (R)-(4-(2,2-difluoroethyl)oxazol-5-yl)(4-(7-fluorobenzo[d]oxazol-2-yl)-6,7-dihydro-1H-imidazo[4,5-c]pyridin-5(4H)-yl)methanone]
- AC50 (A375 R408W cells): ≤ 500 nM

Structure (SMILES): CNc1ccc2c(C(=O)N3CCc4[nH]cnc4C3c3nc4cc(F)ccc4o3)cnn2c1 (stereo not drawn)
- AC50 [1]: ≥ 5000 nM

Structure (SMILES): Cc1ccc2oc([C@H]3c4nc[nH]c4CCN3C(=O)c3oc(-c4cncn4C)nc3C(F)F)nc2c1 [Example 757, (R)-(4-(difluoromethyl)-2-(1-methyl-1H-imidazol-5-yl)oxazol-5-yl)(4-(5-methylbenzo[d]oxazol-2-yl)-6,7-dihydro-1H-imidazo[4,5-c]pyridin-5(4H)-yl)methanone]
- AC50 (A375 R408W cells): 1000 to 5000 nM

Structure (SMILES): Cc1cccc2nc([C@@H]3c4nc[nH]c4CCN3C(=O)c3nc(C(F)F)nn3C)oc12 [Example 613, (S)-(3-(difluoromethyl)-1-methyl-1H-1,2,4-triazol-5-yl)(4-(7-methylbenzo[d]oxazol-2-yl)-6,7-dihydro-1H-imidazo[4,5-c]pyridin-5(4H)-yl)methanone]
- AC50 (A375 R408W cells): ≤ 500 nM

Structure (SMILES): Cc1ccc2nc([C@@H]3c4nc[nH]c4CCN3C(=O)c3nnc(-c4ccccn4)o3)oc2c1 [Example 101, (S)-(4-(6-methylbenzo[d]oxazol-2-yl)-6,7-dihydro-1H-imidazo[4,5-c]pyridin-5(4H)-yl)(5-(pyridin-2-yl)-1,3,4-oxadiazol-2-yl)methanone]
- AC50 (A375 R408W cells): 500 to 1000 nM

Structure (SMILES): Cc1cc(-c2nnc(C(=O)N3CCc4[nH]cnc4C3c3nc4cc(F)ccc4o3)o2)nn1C (stereo not drawn)
- AC50 [1]: 1000 to 5000 nM

Structure (SMILES): Cc1nc(C(=O)N2CCc3[nH]cnc3C2c2nc3c(F)ccc(F)c3o2)n(C)n1 (stereo not drawn)
- AC50 [1]: 1000 to 5000 nM

Structure (SMILES): Nc1cc(C(=O)N2CCc3[nH]cnc3C2c2nc3cc(F)ccc3o2)n(C(F)F)n1 (stereo not drawn)
- AC50 [1]: 1000 to 5000 nM

Structure (SMILES): CC(C)n1nccc1C(=O)N1CCc2[nH]cnc2C1c1nc2cccc(F)c2o1 (stereo not drawn)
- AC50 [1]: 1000 to 5000 nM

Structure (SMILES): Cn1cc(-c2nnc(C(=O)N3CCc4[nH]cnc4[C@@H]3c3nc4cc(F)ccc4o3)o2)cn1 [Example 68, (R)-(4-(5-fluorobenzo[d]oxazol-2-yl)-6,7-dihydro-1H-imidazo[4,5-c]pyridin-5(4H)-yl)(5-(1-methyl-1H-pyrazol-4-yl)-1,3,4-oxadiazol-2-yl)methanone]
- AC50 (A375 R408W cells): 1000 to 5000 nM

Structure (SMILES): O=C(c1ccnn1C(F)(F)F)N1CCc2[nH]cnc2[C@@H]1c1nc2ccc(F)cc2o1 [Example 288, (R)-(4-(6-fluorobenzo[d]oxazol-2-yl)-6,7-dihydro-1H-imidazo[4,5-c]pyridin-5(4H)-yl)(1-(trifluoromethyl)-1H-pyrazol-5-yl)methanone]
- AC50 (A375 R408W cells): 1000 to 5000 nM

Structure (SMILES): CN1CCN(c2nc(C(F)F)c(C(=O)N3CCc4[nH]cnc4[C@H]3c3nc4cccc(F)c4o3)o2)CC1 [Example 617, (S)-(4-(difluoromethyl)-2-(4-methylpiperazin-1-yl)oxazol-5-yl)(4-(7-fluorobenzo[d]oxazol-2-yl)-6,7-dihydro-1H-imidazo[4,5-c]pyridin-5(4H)-yl)methanone]
- AC50 (A375 R408W cells): ≤ 500 nM

Structure (SMILES): Cc1cc(C(=O)N2CCc3[nH]cnc3[C@@H]2c2nc3ccccc3o2)n(C)n1 [Example 780, (R)-(4-(benzo[d]oxazol-2-yl)-6,7-dihydro-1H-imidazo[4,5-c]pyridin-5(4H)-yl)(1,3-dimethyl-1H-pyrazol-5-yl)methanone]
- AC50 (A375 R408W cells): 1000 to 5000 nM

Structure (SMILES): O=C(c1nnc(-c2ccccn2)o1)N1CCc2[nH]cnc2[C@@H]1c1nc2c(F)ccc(F)c2o1 [Example 519, (R)-(4-(4,7-difluorobenzo[d]oxazol-2-yl)-6,7-dihydro-1H-imidazo[4,5-c]pyridin-5(4H)-yl)(5-(pyridin-2-yl)-1,3,4-oxadiazol-2-yl)methanone]
- AC50 (A375 R408W cells): 500 to 1000 nM

Structure (SMILES): Cc1cccc2nc(C3c4nc[nH]c4CCN3C(=O)c3ccn(-c4ccccn4)n3)oc12 (stereo not drawn)
- AC50 [1]: ≥ 5000 nM

Structure (SMILES): Cc1nc(C(C)(C)O)oc1C(=O)N1CCc2[nH]cnc2C1c1nc2cc(F)ccc2o1 (stereo not drawn)
- AC50 [1]: ≥ 5000 nM

Structure (SMILES): O=C(c1nnc(-c2c(F)cccc2F)o1)N1CCc2[nH]cnc2[C@H]1c1nc2cc(F)ccc2o1 [Example 25, (S)-(5-(2,6-difluorophenyl)-1,3,4-oxadiazol-2-yl)(4-(5-fluorobenzo[d]oxazol-2-yl)-6,7-dihydro-1H-imidazo[4,5-c]pyridin-5(4H)-yl)methanone]
- AC50 (A375 R408W cells): ≤ 500 nM
